What was measured:
B-Raf V600E = B-Raf V600E (Homo sapiens, UniProt P15056, V600E); experiment: B-Raf V600E biochemical kinase inhibition (AlphaScreen, biotin-MEK1 substrate); conditions: 100 μM ATP
In short: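 Serial 1:3 dilutions of compound (0.1 mM DMSO stock, eight points) were added first, then ATP to start the reaction at 100 μM final.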

CYP2C9 = CYP2C9 (Homo sapiens, UniProt P11712); experiment: CYP2C9 inhibition (fluorescent substrate); type: in vitro ADME; conditions: CYP2C9, MFC substrate; read-out: Cyp IC50 2C9
Sequence of CYP2C9 (P11712 whole entry): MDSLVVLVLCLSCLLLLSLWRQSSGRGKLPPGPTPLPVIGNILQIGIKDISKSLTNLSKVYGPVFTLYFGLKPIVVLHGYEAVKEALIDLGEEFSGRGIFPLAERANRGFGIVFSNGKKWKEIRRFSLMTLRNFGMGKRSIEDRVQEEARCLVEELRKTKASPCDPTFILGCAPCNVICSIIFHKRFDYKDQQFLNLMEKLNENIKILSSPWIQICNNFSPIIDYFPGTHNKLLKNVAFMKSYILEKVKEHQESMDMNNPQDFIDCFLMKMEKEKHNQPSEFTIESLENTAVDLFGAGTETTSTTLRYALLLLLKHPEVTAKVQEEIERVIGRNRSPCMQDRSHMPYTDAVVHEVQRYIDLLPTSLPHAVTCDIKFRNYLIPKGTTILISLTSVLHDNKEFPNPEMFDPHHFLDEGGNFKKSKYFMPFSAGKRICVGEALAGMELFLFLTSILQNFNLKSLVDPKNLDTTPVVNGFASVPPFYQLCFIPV
In short: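 First, 100 mM DMSO stocks are diluted into acetonitrile, then twofold through co-factor mix for 10 points. Next, mixtures are preincubated 10 min at 37 °C.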

[1] = system: SKMEL2 melanoma cells (Ras mutation); experiment: SKMEL2 cell growth inhibition (ATPlite); type: cell-based; conditions: Homo sapiens, SK-MEL-2, 72 h; SKMEL2, 3 days incubation
In short: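 SKMEL2 cells seeded at 2,000 per well overnight, then exposed to an 8-point 1:3 compound titration (top 10 μM final) for 3 days at 37 °C. ATPlite luminescence used as a measure of cell number to derive IC50.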

CYP3A4(BFC) = CYP3A4(BFC) (Homo sapiens, UniProt P08684); experiment: CYP3A4(BFC) inhibition (fluorescent substrate); type: in vitro ADME; conditions: read-out: Cyp IC50 3A4(BFC)
Sequence of CYP3A4(BFC) (P08684 whole entry): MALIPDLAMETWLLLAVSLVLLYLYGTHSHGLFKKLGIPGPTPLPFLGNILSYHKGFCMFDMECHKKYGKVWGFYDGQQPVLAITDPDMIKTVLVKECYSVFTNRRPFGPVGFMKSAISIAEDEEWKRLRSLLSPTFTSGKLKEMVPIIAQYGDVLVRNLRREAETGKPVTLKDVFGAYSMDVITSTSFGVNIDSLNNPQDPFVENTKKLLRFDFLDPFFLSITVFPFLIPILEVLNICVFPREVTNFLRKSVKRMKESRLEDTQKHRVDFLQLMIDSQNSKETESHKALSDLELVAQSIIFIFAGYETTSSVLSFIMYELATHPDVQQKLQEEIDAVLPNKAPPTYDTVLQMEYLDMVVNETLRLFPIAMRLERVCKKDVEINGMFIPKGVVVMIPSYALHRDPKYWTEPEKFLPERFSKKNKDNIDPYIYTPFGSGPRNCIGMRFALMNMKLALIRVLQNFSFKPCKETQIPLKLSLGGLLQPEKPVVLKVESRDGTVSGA
In short: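 Compound, from a 100 mM DMSO stock and diluted 1:1 over 10 points in co-factor mix, was incubated at 37° C with enzyme and a known substrate. Decrease in fluorescent product against concentration gave the IC50.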

Sequence of B-Raf V600E (P15056 whole entry V600E): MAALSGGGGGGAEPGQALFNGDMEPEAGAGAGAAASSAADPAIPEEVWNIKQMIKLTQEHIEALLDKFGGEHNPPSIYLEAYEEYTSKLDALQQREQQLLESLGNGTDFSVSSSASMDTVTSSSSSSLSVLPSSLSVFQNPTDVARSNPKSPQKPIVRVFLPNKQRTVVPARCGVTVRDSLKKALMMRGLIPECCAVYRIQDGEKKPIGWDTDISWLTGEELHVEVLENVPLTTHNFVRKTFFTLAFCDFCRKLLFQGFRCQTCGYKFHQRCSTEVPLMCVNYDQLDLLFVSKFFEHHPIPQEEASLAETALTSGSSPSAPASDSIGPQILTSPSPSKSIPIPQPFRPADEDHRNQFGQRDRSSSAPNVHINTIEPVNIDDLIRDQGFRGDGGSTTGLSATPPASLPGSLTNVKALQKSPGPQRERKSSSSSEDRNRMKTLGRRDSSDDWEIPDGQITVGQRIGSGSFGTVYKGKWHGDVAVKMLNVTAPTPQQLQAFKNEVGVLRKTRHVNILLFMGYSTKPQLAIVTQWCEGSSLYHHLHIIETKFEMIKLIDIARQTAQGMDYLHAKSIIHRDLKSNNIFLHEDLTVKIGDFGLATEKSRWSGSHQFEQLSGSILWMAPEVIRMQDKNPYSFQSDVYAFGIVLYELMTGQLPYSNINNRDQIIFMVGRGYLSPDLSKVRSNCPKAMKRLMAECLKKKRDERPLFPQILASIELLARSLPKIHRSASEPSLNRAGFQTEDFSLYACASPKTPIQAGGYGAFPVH

IC50 (B-Raf V600E) [nM] | IC50 (CYP2C9) [µM] | IC50 [1] [µM] | IC50 (CYP3A4(BFC)) [µM] | SMILES
< 100 | > 10 | > 10 | 5 to 10 | COc1ccnc2[nH]cc(C(=O)c3c(F)ccc(NS(=O)(=O)c4cccnc4)c3F)c12 [P-2073, Pyridine-3-sulfonic acid [2,4-difluoro-3-(4-methoxy-1H-pyrrolo[2,3-b]pyridine-3-carbonyl)-phenyl]-amide]
< 10 | < 5 | < 10 | > 10 | CCCS(=O)(=O)Nc1ccc(F)c(C(=O)c2c[nH]c3ncc(-c4cnc(SC)nc4)cc23)c1F [P-2189, Propane-1-sulfonic acid {2,4-difluoro-3-[5-(2-methylsulfanyl-pyrimidin-5-yl)-1H-pyrrolo[2,3-b]pyridine-3-carbonyl]-phenyl}-amide]
< 10 | < 5 | < 10 | < 5 | CCCS(=O)(=O)Nc1ccc(F)c(C(=O)c2c[nH]c3ncc(-c4cnn(CCN5CCOCC5)c4)cc23)c1F [P-2177, Propane-1-sulfonic acid (2,4-difluoro-3-{5-[1-(2-morpholin-4-yl-ethyl)-1H-pyrazol-4-yl]-1H-pyrrolo[2,3-b]pyridine-3-carbonyl}-phenyl)-amide]
< 100 | > 10 | > 10 | > 10 | COc1ccnc2[nH]cc(C(=O)c3c(F)ccc(NS(=O)(=O)c4c(F)cccc4F)c3F)c12 [P-2031, N-[2,4-Difluoro-3-(4-methoxy-1H-pyrrolo[2,3-b]pyridine-3-carbonyl)-phenyl]-2,6-difluoro-benzenesulfonamide]

— US8198273B2, “Compounds and methods for kinase modulation, and indications therefor” (Plexxikon Inc., priority 2009, dated 2012)
